{
  "source": "ChEMBL document CHEMBL3112450",
  "about": "“Synthesis and in vitro antitumor evaluation of primary amine substituted quinazoline linked benzimidazole” (Bioorg Med Chem Lett, 2014)",
  "data": [
    {"test_system": "SK-MEL-5", "assay": "Cytotoxicity against human SK-MEL-5 cells after 48 hrs by SRB assay", "format": "functional", "conditions": "SK-MEL-5, 48 h", "units": {"TGI": "µM"}, "values": [
      {"smiles": "C=CCn1c(C)nc2ccc(Nc3nc(Nc4ccc5nc(C)n(CC=C)c5c4)c4ccccc4n3)cc21", "TGI": 3.03}
    ]},
    {"test_system": "DU-145", "assay": "Cytotoxicity against human DU145 cells assessed as cell growth at 10^-7 M after 48 hrs by SRB assay", "format": "functional", "conditions": "DU-145, 48 h, read-out: Activity", "units": {"growth at 0.1 µM": "%"}, "values": [
      {"smiles": "C=CCn1c(C)nc2ccc(Nc3nc(Nc4ccc5nc(C)n(CC=C)c5c4)c4ccccc4n3)cc21", "growth at 0.1 µM": 100}
    ]},
    {"test_system": "not listed separately", "assay": "Cytotoxicity against human NCI-ADR-RES cells assessed as cell growth at 10^-7 M after 48 hrs by SRB assay", "format": "functional", "conditions": "read-out: Activity", "units": {"growth at 0.1 µM": "%"}, "values": [
      {"smiles": "C=CCn1c(C)nc2ccc(Nc3nc(Nc4ccc5nc(C)n(CC=C)c5c4)c4ccccc4n3)cc21", "growth at 0.1 µM": 95}
    ]},
    {"test_system": "MDA-MB-468", "assay": "Cytotoxicity against human MDA-MB-468 cells assessed as cell growth at 10^-7 M after 48 hrs by SRB assay", "format": "functional", "conditions": "MDA-MB-468, 48 h, read-out: Activity", "units": {"growth at 0.1 µM": "%"}, "values": [
      {"smiles": "C=CCn1c(C)nc2ccc(Nc3nc(Nc4ccc5nc(C)n(CC=C)c5c4)c4ccccc4n3)cc21", "growth at 0.1 µM": 92}
    ]},
    {"test_system": "CAKI-1", "assay": "Cytotoxicity against human Caki1 cells assessed as cell growth at 10^-8 M after 48 hrs by SRB assay", "format": "functional", "conditions": "CAKI-1, 48 h, read-out: Activity", "units": {"growth at 0.01 µM": "%"}, "values": [
      {"smiles": "C=CCn1c(C)nc2ccc(Nc3nc(Nc4ccc5nc(C)n(CC=C)c5c4)c4ccccc4n3)cc21", "growth at 0.01 µM": 93}
    ]},
    {"test_system": "MDA-MB-468", "assay": "Cytotoxicity against human MDA-MB-468 cells assessed as cell growth at 10^-5 M after 48 hrs by SRB assay", "format": "functional", "conditions": "MDA-MB-468, 48 h, read-out: Activity", "units": {"growth at 10 µM": "%"}, "values": [
      {"smiles": "C=CCn1c(C)nc2ccc(Nc3nc(Nc4ccc5nc(C)n(CC=C)c5c4)c4ccccc4n3)cc21", "growth at 10 µM": -99}
    ]},
    {"test_system": "HOP-92", "assay": "Cytotoxicity against human HOP92 cells assessed as cell growth at 10^-8 M after 48 hrs by SRB assay", "format": "functional", "conditions": "HOP-92, 48 h, read-out: Activity", "units": {"growth at 0.01 µM": "%"}, "values": [
      {"smiles": "C=CCn1c(C)nc2ccc(Nc3nc(Nc4ccc5nc(C)n(CC=C)c5c4)c4ccccc4n3)cc21", "growth at 0.01 µM": 92}
    ]},
    {"test_system": "MCF7", "assay": "Cytotoxicity against human MCF7 cells assessed as cell growth at 10^-5 M after 48 hrs by SRB assay", "format": "functional", "conditions": "MCF7, 48 h, read-out: Activity", "units": {"growth at 10 µM": "%"}, "values": [
      {"smiles": "C=CCn1c(C)nc2ccc(Nc3nc(Nc4ccc5nc(C)n(CC=C)c5c4)c4ccccc4n3)cc21", "growth at 10 µM": -100}
    ]},
    {"test_system": "not listed separately", "assay": "Cytotoxicity against human UACC257 cells assessed as cell growth at 10^-5 M after 48 hrs by SRB assay", "format": "functional", "conditions": "UACC-257, 48 h, read-out: Activity", "units": {"growth at 10 µM": "%"}, "values": [
      {"smiles": "C=CCn1c(C)nc2ccc(Nc3nc(Nc4ccc5nc(C)n(CC=C)c5c4)c4ccccc4n3)cc21", "growth at 10 µM": -91}
    ]},
    {"test_system": "U-251", "assay": "Cytotoxicity against human U251 cells assessed as cell growth at 10^-5 M after 48 hrs by SRB assay", "format": "functional", "conditions": "U-251, 48 h, read-out: Activity", "units": {"growth at 10 µM": "%"}, "values": [
      {"smiles": "C=CCn1c(C)nc2ccc(Nc3nc(Nc4ccc5nc(C)n(CC=C)c5c4)c4ccccc4n3)cc21", "growth at 10 µM": -100}
    ]},
    {"test_system": "NCI-H460", "assay": "Cytotoxicity against human NCI-H460 cells assessed as cell growth at 10^-5 M after 48 hrs by SRB assay", "format": "functional", "conditions": "NCI-H460, 48 h, read-out: Activity", "units": {"growth at 10 µM": "%"}, "values": [
      {"smiles": "C=CCn1c(C)nc2ccc(Nc3nc(Nc4ccc5nc(C)n(CC=C)c5c4)c4ccccc4n3)cc21", "growth at 10 µM": -74}
    ]},
    {"test_system": "RPMI-8226", "assay": "Cytotoxicity against human RPMI8226 cells assessed as cell growth at 10^-6 M after 48 hrs by SRB assay", "format": "functional", "conditions": "RPMI-8226, 48 h, read-out: Activity", "units": {"growth at 1 µM": "%"}, "values": [
      {"smiles": "C=CCn1c(C)nc2ccc(Nc3nc(Nc4ccc5nc(C)n(CC=C)c5c4)c4ccccc4n3)cc21", "growth at 1 µM": 83}
    ]},
    {"test_system": "HCT-116", "assay": "Cytotoxicity against human HCT116 cells assessed as cell growth at 10^-5 M after 48 hrs by SRB assay", "format": "functional", "conditions": "HCT-116, 48 h, read-out: Activity", "units": {"growth at 10 µM": "%"}, "values": [
      {"smiles": "C=CCn1c(C)nc2ccc(Nc3nc(Nc4ccc5nc(C)n(CC=C)c5c4)c4ccccc4n3)cc21", "growth at 10 µM": -100}
    ]},
    {"test_system": "KM12", "assay": "Cytotoxicity against human KM12 cells assessed as cell growth at 10^-4 M after 48 hrs by SRB assay", "format": "functional", "conditions": "KM12, 48 h, read-out: Activity", "units": {"growth at 100 µM": "%"}, "values": [
      {"smiles": "C=CCn1c(C)nc2ccc(Nc3nc(Nc4ccc5nc(C)n(CC=C)c5c4)c4ccccc4n3)cc21", "growth at 100 µM": -31}
    ]},
    {"test_system": "SF-539", "assay": "Cytotoxicity against human SF539 cells assessed as cell growth at 10^-7 M after 48 hrs by SRB assay", "format": "functional", "conditions": "SF-539, 48 h, read-out: Activity", "units": {"growth at 0.1 µM": "%"}, "values": [
      {"smiles": "C=CCn1c(C)nc2ccc(Nc3nc(Nc4ccc5nc(C)n(CC=C)c5c4)c4ccccc4n3)cc21", "growth at 0.1 µM": 94}
    ]},
    {"test_system": "KM12", "assay": "Cytotoxicity against human KM12 cells assessed as cell growth at 10^-5 M after 48 hrs by SRB assay", "format": "functional", "conditions": "KM12, 48 h, read-out: Activity", "units": {"growth at 10 µM": "%"}, "values": [
      {"smiles": "C=CCn1c(C)nc2ccc(Nc3nc(Nc4ccc5nc(C)n(CC=C)c5c4)c4ccccc4n3)cc21", "growth at 10 µM": -94}
    ]},
    {"test_system": "UACC-62", "assay": "Cytotoxicity against human UACC62 cells assessed as cell growth at 10^-5 M after 48 hrs by SRB assay", "format": "functional", "conditions": "UACC-62, 48 h, read-out: Activity", "units": {"growth at 10 µM": "%"}, "values": [
      {"smiles": "C=CCn1c(C)nc2ccc(Nc3nc(Nc4ccc5nc(C)n(CC=C)c5c4)c4ccccc4n3)cc21", "growth at 10 µM": -100}
    ]},
    {"test_system": "SNB-19", "assay": "Cytotoxicity against human SNB19 cells assessed as cell growth at 10^-5 M after 48 hrs by SRB assay", "format": "functional", "conditions": "SNB-19, 48 h, read-out: Activity", "units": {"growth at 10 µM": "%"}, "values": [
      {"smiles": "C=CCn1c(C)nc2ccc(Nc3nc(Nc4ccc5nc(C)n(CC=C)c5c4)c4ccccc4n3)cc21", "growth at 10 µM": -69}
    ]},
    {"test_system": "TK-10", "assay": "Cytotoxicity against human TK10 cells assessed as cell growth at 10^-8 M after 48 hrs by SRB assay", "format": "functional", "conditions": "TK-10, 48 h, read-out: Activity", "units": {"growth at 0.01 µM": "%"}, "values": [
      {"smiles": "C=CCn1c(C)nc2ccc(Nc3nc(Nc4ccc5nc(C)n(CC=C)c5c4)c4ccccc4n3)cc21", "growth at 0.01 µM": 100}
    ]}
  ]
}
